# Results from patent publication US20140072604A1, “Block Copolymer For Intraperitoneal Administration Containing Anti-Cancer Agent, Micelle Preparation Thereof, And Cancer Therapeutic Agent Comprising The Micelle Preparation As Active Ingredient” (priority 2009, published 2014).
# Counter-ions that a name gives are not always drawn.
# Key:
# Format in all cases: in vivo, BALB/c nude mouse
# [1] = test system: human ovarian cancer cell line ES-2; experiment: Life-prolonging effect in nude mouse model for peritoneal disseminated metastasis (ES-2), intraperitoneal administration; details: once three days after tumor transplantation, observed until 80 days
# Protocol: Therapeutic effects on peritoneal disseminated metastasis were tested by using a mouse model for peritoneal disseminated metastasis. Specifically, the mouse model for peritoneal disseminated metastasis was prepared by intraperitoneal injection of human ovarian cancer cell line ES-2 (1.0×10^6 cells) to an 8-week old BALB/c nude mouse.
# In order to estimate advantageous life-prolonging effects of the present micelle preparation having encapsulated paclitaxel, the model mice were divided into three groups, i.e., 8 mice per group. […] In addition, the drug dosage was determined by converting a clinical dosage for intravenous route (paclitaxel 210 mg/m^2 and paclitaxel micelle preparation: 150 mg/m^2) to those for a mouse using an AUC comparison. […]
# 1 ml of saline (Control group); 1 ml of saline containing 66.7 mg/kg of irinotecan hydrochloride (66.7 mg/kg CPT-11 administered group); and 1 ml of 5% glucose solution containing the micelle preparation containing 30 mg/kg of SN-38 (30 mg/kg SN-38 micelle administered group) were intraperitoneally administered to the mouse of each group, respectively. […] In addition, the drug dosage was determined as the one-third of the maximum amount allowed for intravenous route administration for a mouse. […]
# [2] = test system: human ovarian cancer cell line SHIN-3; experiment: Life-prolonging effect in nude mouse model for peritoneal disseminated metastasis (SHIN-3), intraperitoneal administration
# Protocol: In order to estimate an effect of intraperitoneal administration of the micelle preparation having encapsulated paclitaxel, a mouse model for peritoneal disseminated metastasis was prepared by intraperitoneal injection of human ovarian cancer cell line SHIN-3 (1.0×10^7 cells) to an 8-week old BALB/c nude mouse. Three groups were created as following: 1 ml of saline (Control group, 18 mice); 1 ml of saline containing […] of paclitaxel (100 mg/kg PTX administered group, 8 mice); and 1 ml of 5% glucose solution containing the micelle preparation containing 50 mg/ml of encapsulated paclitaxel (50 mg/kg PTX micelle administered group, 8 mice) were intraperitoneally administered to the mouse of each group, respectively. The amounts of the ingredients were of by 20 g mouse body weight. The administrations were carried out once after one week of the tumor transplantations. The mice were observed until 120 days after the cell transplantation. The survival rates were recorded and the survival curves was plotted in FIG. 3.
# [3] = test system: human stomach cancer cell line MKN45-P; experiment: Life-prolonging effect in nude mouse model for peritoneal disseminated metastasis (MKN45-P), intraperitoneal administration; details: 50 mg/kg, once three days after tumor transplantation, observed until 60 days
# Protocol: In order to estimate an effect of intraperitoneal administration of a micelle preparation having encapsulated paclitaxel, a mouse model for peritoneal disseminated metastasis was prepared by intraperitoneal injection of human stomach cancer cell line MKN45-P (1.0×10^6 cells) to an 8-week old BALB/c nude mouse. Three groups were created as following: 1 ml of saline (Control group, 8 mice); 1 ml of saline containing 50 mg/ml of paclitaxel (50 mg/kg PTX administered group, 8 mice); and 1 ml of 5% glucose solution containing the micelle preparation containing 25 mg/ml of encapsulated paclitaxel (25 mg/kg PTX micelle administered group, 8 mice) were intraperitoneally administered to the mouse of each group, respectively. The amounts of the ingredients were of by 25 g mouse body weight. The administrations were carried out once after three days of the tumor transplantation. The mice were observed until 60 days after the cell transplantation. The survival rates was recorded and the survival curves was plotted in FIG. 4.
SMILES,"50% survival rate, day after transplantation ([1]; 70 mg/kg, Control Day 17) [days]","toxic death ([2]; 100 mg/kg PTX administered group, 8 mice, once)","50% survival rate, day after transplantation ([2]; 100 mg/kg, once one week after tumor transplantation, observed until 120 days) [days]","50% survival rate, day after transplantation [3] [days]","50% survival rate, day after transplantation ([1]; 66.7 mg/kg, Control Day 21) [days]"
"CC(=O)O[C@H]1C(=O)[C@@]2(C)[C@H]([C@H](OC(=O)c3ccccc3)[C@]3(O)C[C@H](OC(=O)[C@H](O)[C@@H](NC(=O)c4ccccc4)c4ccccc4)C(C)=C1C3(C)C)[C@]1(OC(C)=O)CO[C@@H]1C[C@@H]2O [PTX, paclitaxel]",44,two cases of toxic death,100,55,–
"CCc1c2c(nc3ccc(OC(=O)N4CCC(N5CCCCC5)CC4)cc13)-c1cc3c(c(=O)n1C2)COC(=O)[C@]3(O)CC [CPT-11, irinotecan hydrochloride]",–,–,–,–,56
